Tests used:
memapsin 2 = memapsin 2 (Homo sapiens, UniProt P56817); assay: Inhibition of memapsin 2 catalytic activity (Ki); assay type: biochemical; conditions: memapsin 2, pH 4, 37° C.; read-out: M2K
In short: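 Run at 37 °C and pH 4: compound and enzyme pre-incubated 20 min before FS-2 fluorogenic substrate started hydrolysis,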

cathepsin D = cathepsin D (Homo sapiens, UniProt P07339); assay: Inhibition of cathepsin D catalytic activity (Ki); assay type: biochemical; conditions: pH 4.0, 37° C., read-out: CDK
memapsin 1 = molecular target: T1, memapsin 1 (Homo sapiens, UniProt Q9Y5Z0); assay: Inhibition of memapsin 1 catalytic activity (Ki); assay type: biochemical; conditions: memapsin 1, pH 4.0, 37° C.; read-out: M1K
T1 sequence (Q9Y5Z0 63-518): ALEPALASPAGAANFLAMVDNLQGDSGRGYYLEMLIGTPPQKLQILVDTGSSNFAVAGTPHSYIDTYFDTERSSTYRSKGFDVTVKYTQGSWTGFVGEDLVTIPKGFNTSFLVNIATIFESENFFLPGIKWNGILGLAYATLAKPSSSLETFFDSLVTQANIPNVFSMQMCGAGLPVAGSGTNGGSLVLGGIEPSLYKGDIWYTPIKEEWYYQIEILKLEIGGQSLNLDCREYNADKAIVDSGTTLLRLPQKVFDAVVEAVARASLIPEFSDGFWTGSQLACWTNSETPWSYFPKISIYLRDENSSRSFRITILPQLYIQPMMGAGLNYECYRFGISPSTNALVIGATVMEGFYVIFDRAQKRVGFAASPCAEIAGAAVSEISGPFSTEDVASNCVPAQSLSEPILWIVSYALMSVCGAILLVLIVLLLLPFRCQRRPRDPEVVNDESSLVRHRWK

[1] = test system: Aβ production in Chinese hamster ovary cells that over-express human APP695 with the London and Swedish mutations; assay: Cellular Aβ IC50 determination (Aβ40 sandwich ELISA); conditions: Cricetulus griseus, CHO, 24 h, read-out: Cell, Aβ40, CHO cells over-expressing human APP695 (London and Swedish mutations), 24 h
Description: The potency of compounds against memapsin 2 catalytic activity was determined in a cellular assay of Aβ production. […] Compounds are dissolved in DMSO to concentrations near 1 mM, and diluted into culture media to a final concentration near 4 μM (final 0.4% DMSO). Compounds were diluted serially and applied to cells in multi-well plates 48 h after seeding. Incubation was continued in 5% CO2 at 37 degrees C. for 24 h. Aliquots were removed and assayed for Aβ40 content using a sandwich ELISA (BioSource International). Amount of Aβ40 over the range of concentration of compounds, relative to control incubations, were fit to a 4-parameter IC50 model.

cathepsin D, sequence (P07339 65-412, species assumed): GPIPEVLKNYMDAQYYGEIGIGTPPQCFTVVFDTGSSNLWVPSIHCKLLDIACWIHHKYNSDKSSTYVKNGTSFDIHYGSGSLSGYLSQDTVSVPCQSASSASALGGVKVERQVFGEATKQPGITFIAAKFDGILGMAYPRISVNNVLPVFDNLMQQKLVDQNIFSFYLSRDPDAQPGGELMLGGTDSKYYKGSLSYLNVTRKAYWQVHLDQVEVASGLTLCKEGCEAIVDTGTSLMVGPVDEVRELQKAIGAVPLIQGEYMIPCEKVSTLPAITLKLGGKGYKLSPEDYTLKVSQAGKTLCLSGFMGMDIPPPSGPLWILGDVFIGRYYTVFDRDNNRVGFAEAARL
memapsin 2, sequence (P56817 46-501): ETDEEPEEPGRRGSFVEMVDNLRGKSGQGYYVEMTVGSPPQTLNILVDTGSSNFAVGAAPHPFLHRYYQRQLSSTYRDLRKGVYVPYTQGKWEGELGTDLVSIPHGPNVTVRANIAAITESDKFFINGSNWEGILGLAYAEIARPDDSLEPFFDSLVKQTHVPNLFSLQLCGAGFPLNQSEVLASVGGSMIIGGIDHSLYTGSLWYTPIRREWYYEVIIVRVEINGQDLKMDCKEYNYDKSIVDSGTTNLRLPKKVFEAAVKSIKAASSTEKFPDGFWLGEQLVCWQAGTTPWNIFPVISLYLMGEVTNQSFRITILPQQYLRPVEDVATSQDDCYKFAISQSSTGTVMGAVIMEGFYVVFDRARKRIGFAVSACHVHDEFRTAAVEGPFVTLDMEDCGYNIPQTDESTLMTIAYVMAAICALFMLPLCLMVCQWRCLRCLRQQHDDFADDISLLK

Ki (memapsin 2) [nM] | Ki (cathepsin D) [nM] | Ki (memapsin 1) [nM] | IC50 [1] [nM] | Structure (SMILES)
< 300 | 301 to 500 | < 300 | < 1000 | CC(=O)Nc1cccc(CNCC(O)C(Cc2ccccc2)NC(=O)c2cc(C(=O)NC(C)c3ccccc3)cc(N(C)S(C)(=O)=O)c2)c1 (stereo not shown) [N1-(4-(3-acetamidobenzylamino)-3-hydroxy-1-phenylbutan-2-yl)-5-(N-methylmethylsulfonamido)-N3-(1-phenylethyl)isophthalamide]
< 300 | 301 to 500 | > 501 | < 1000 | CC(NC(=O)c1cc(C(=O)NC(Cc2ccccc2)C(O)CNCc2cccc(F)c2)cc(N(C)S(C)(=O)=O)c1)c1ccccc1 (stereo not shown) [N1-(4-(3-fluorobenzylamino)-3-hydroxy-1-phenylbutan-2-yl)-5-(N-methylmethylsulfonamido)-N3-(1-phenylethyl)isophthalamide]
> 501 | < 300 | > 501 | < 1000 | Cc1csc(CN(C)C(=O)c2cccc(C(=O)NC(Cc3ccccc3)C(O)CNCc3cccc(F)c3)c2)n1 (stereo not shown) [N1-(4-(3-fluorobenzylamino)-3-hydroxy-1-phenylbutan-2-yl)-N3-methyl-N3-((4-methylthiazol-2-yl)methyl)isophthalamide]
< 300 | < 300 | < 300 | < 1000 | CC(NC(=O)c1cc(C(=O)NC(Cc2ccccc2)C(O)CNCc2ccccc2)cc(N(C)S(C)(=O)=O)c1)c1ccccc1 (stereo not shown) [N1-(4-(benzylamino)-3-hydroxy-1-phenylbutan-2-yl)-5-(N-methylmethylsulfonamido)-N3-(1-phenylethyl)isophthalamide]
> 501 | > 501 | > 501 | 1000 to 5000 | COc1cccc(CNCC(O)C(Cc2ccccc2)NC(=O)c2cc(C(=O)NCc3nc(C)oc3C)cc(N(C)S(C)(=O)=O)c2)c1 (stereo not shown) [N1-((2,5-dimethyloxazol-4-yl)methyl)-N3-(3-hydroxy-4-(3-methoxybenzylamino)-1-phenylbutan-2-yl)-5-(N-methylmethylsulfonamido)isophthalamide]
301 to 500 | 301 to 500 | > 501 | > 5000 | COc1cccc(CNCC(O)C(Cc2ccccc2)NC(=O)c2cc(C(=O)NCC3COC4OCCC34)cc(N(C)S(C)(=O)=O)c2)c1 (stereo not shown) [N1-((hexahydrofuro[2,3-b]furan-3-yl)methyl)-N3-(3-hydroxy-4-(3-methoxybenzylamino)-1-phenylbutan-2-yl)-5-(N-methylmethylsulfonamido)isophthalamide]
< 300 | < 300 | > 501 | < 1000 | COc1cccc(CNCC(O)C(Cc2ccccc2)NC(=O)c2cc(C(=O)NCc3ccccc3)cc(N(C)S(C)(=O)=O)c2)c1 (stereo not shown) [N1-benzyl-N3-(3-hydroxy-4-(3-methoxybenzylamino)-1-phenylbutan-2-yl)-5-(N-methylmethylsulfonamido)isophthalamide]
< 300 | < 300 | < 300 | < 1000 | Cc1csc(CN(C(=O)c2cccc(C(=O)NC(Cc3ccccc3)C(O)CNCc3cncc(C(C)C)c3)c2)C2CC2)n1 (stereo not shown) [N1-cyclopropyl-N3-(3-hydroxy-4-((5-isopropylpyridin-3-yl)methylamino)-1-phenylbutan-2-yl)-N1-((4-methylthiazol-2-yl)methyl)isophthalamide]
< 300 | < 300 | > 501 | < 1000 | COc1cccc(CNCC(O)C(Cc2ccccc2)NC(=O)c2cc(C(=O)NN(C)c3ccccc3)cc(N(C)S(C)(=O)=O)c2)c1 (stereo not shown) [N-(3-hydroxy-4-(3-methoxybenzylamino)-1-phenylbutan-2-yl)-3-(2-methyl-2-phenylhydrazinecarbonyl)-5-(N-methylmethylsulfonamido)benzamide]
> 501 | > 501 | > 501 | < 1000 | COC(=O)c1cccc(CNCC(O)C(Cc2ccccc2)NC(=O)c2cc(C(=O)NC(C)c3ccccc3)cc(N(C)S(C)(=O)=O)c2)c1 (stereo not shown) [methyl 3-((2-hydroxy-3-(3-(N-methylmethylsulfonamido)-5-(1-phenylethylcarbamoyl)benzamido)-4-phenylbutylamino)methyl)benzoate]
